According to ChEMBL document CHEMBL1127781, “Antitumor agents. 7. Synthesis and antitumor activity of novel hexacyclic camptothecin analogues” (J Med Chem, 1994):
Values after ≈ are worked out from the molar mass of the structure shown.

Legend:
P388 [1] = assay: Tested in vitro for the inhibition of P388 (mouse leukemia) cell line by MTT assay; format: functional, cell-based
QG-56 = assay: Tested in vitro for the inhibition of QG-56 (human lung squamous cell carcinoma) cell line by MTT assay; format: functional, cell-based
HOC-21 cell line = assay: Tested in vitro for the inhibition of HOC-21(human ovarian cancer) cell line by MTT assay; format: functional, cell-based
Mus musculus [2] = assay: Tested for (median survival time of treated/control animals) x100 at dosage of 240 mg/kg.; format: functional
Mus musculus [3] = assay: Tested for (median survival time of treated/control animals) x100 at dosage of 120 mg/kg.; format: functional
[4] = Tested for (median survival time of treated/control animals) x100 at dosage of 480 mg/kg.; format: functional
[5] = Tested for (median survival time of treated/control animals) x100 at dosage of 30 mg/kg.; format: functional
Mus musculus [6] = assay: Tested for (median survival time of treated/control animals) x100 at dosage of 60 mg/kg.; format: functional
[7] = Tested for median survival time of treated/control animals) x100 at dosage of 120 mg/kg.; format: functional
[8] = Tested for median survival time of treated/control animals) x100 at dosage of 30 mg/kg.; format: functional
[9] = Tested for median survival time of treated/control animals) x100 at dosage of 240 mg/kg.; format: functional
[10] = Tested for median survival time of treated/control animals) x100 at dosage of 480 mg/kg.; format: functional
[11] = Tested for median survival time of treated/control animals) x100 at dosage of 60 mg/kg.; format: functional
[12] = Tested for (median survival time of treated/control animals) x100 at dosage of 120 mg/kg; format: functional
[13] = Tested for (median survival time of treated/control animals) x100 at dosage of 30 mg/kg; format: functional
[14] = Tested for (median survival time of treated/control animals) x100 at dosage of 60 mg/kg; format: functional
[15] = Tested for (median survival time of treated/control animals) x100 at dosage of 240 mg/kg; format: functional
P388 [16] = assay: Tested in vitro for the inhibition of P388 (mouse leukemia) cell line by MTT assay; 1.95-6.93 ng/mL; format: functional, cell-based

Compound	IC50 (P388 [1]) [ng/mL]	IC50 (QG-56) [ng/mL]	IC50 (HOC-21 cell line) [ng/mL]	T/C (Mus musculus [3]) [%]	also measured
CCC1(O)C(=O)OCc2c1cc1n(c2=O)Cc2c-1nc1cccc(CN)c1c2C (stereo not given)	5.02 (≈ 0.0128 µM)	6.36 (≈ 0.0162 µM)	44.8 (≈ 0.114 µM)		
CCC1(O)C(=O)OCc2c1cc1n(c2=O)Cc2c-1nc1cccc(COC(C)=O)c1c2COC(C)=O (stereo not given)	40.5 (≈ 0.0822 µM)	7.41 (≈ 0.015 µM)	> 500		
CC[C@@]1(O)C(=O)OCc2c1cc1n(c2=O)Cc2c-1nc1cccc3c1c2CNC3	3.39 (≈ 0.00871 µM)	2.98 (≈ 0.00765 µM)	37.8 (≈ 0.0969 µM)		
CC[C@@]1(O)C(=O)OCc2c1cc1n(c2=O)Cc2c-1nc1ccc(C)c3c1c2CCC3	0.78 (≈ 0.00194 µM)	0.68 (≈ 0.00169 µM)	5.88 (≈ 0.0146 µM)		
CC[C@@]1(O)C(=O)OCc2c1cc1n(c2=O)Cc2c-1nc1cccc3c1c2CCCC3	1.22 (≈ 0.00303 µM)	1.73 (≈ 0.0043 µM)	15.6 (≈ 0.0388 µM)		
CC[C@@]1(O)C(=O)OCc2c1cc1n(c2=O)Cc2c-1nc1cccc3c1c2COC3	0.95 (≈ 0.00243 µM)	1.14 (≈ 0.00292 µM)	12.3 (≈ 0.0315 µM)		
CC[C@@]1(O)C(=O)OCc2c1cc1n(c2=O)Cc2c-1nc1cccc(C)c1c2C	3.76 (≈ 0.00999 µM)	0.6 (≈ 0.00159 µM)	> 500		
CC[C@@]1(O)C(=O)OCc2c1cc1n(c2=O)Cc2c-1nc1ccc(O)c3c1c2CCC3	1.6 (≈ 0.00396 µM)	0.26 (≈ 0.000643 µM)	12.6 (≈ 0.0312 µM)		
CCC1(O)C(=O)OCc2c1cc1n(c2=O)Cc2c-1nc1ccc(O)c3c1c2CCO3 (racemic)		1.1 (≈ 0.00271 µM)	79 (≈ 0.194 µM)	233	T/C (Mus musculus [2]): 20%; T/C [4]: 19%; T/C [5]: 147%; T/C (Mus musculus [6]): 221%
CCC1(O)C(=O)OCc2c1cc1n(c2=O)Cc2c-1nc1ccc(O)c3c1c2CCC3 (racemic)	3.8 (≈ 0.0094 µM)	0.5 (≈ 0.00124 µM)	26.4 (≈ 0.0653 µM)		T/C [7]: 354%; T/C [8]: 182%; T/C [9]: >392%; T/C [10]: 88.5%; T/C [11]: 201%
CCC1(O)C(=O)OCc2c1cc1n(c2=O)Cc2c-1nc1ccc(O)c3c1c2CC3 (racemic)	2.22 (≈ 0.00569 µM)	1.25 (≈ 0.0032 µM)	15.9 (≈ 0.0407 µM)	110	T/C (Mus musculus [2]): 90.9%; T/C [4]: 78.2%; T/C [5]: 167%; T/C (Mus musculus [6]): 206%
CCC1(O)C(=O)OCc2c1cc1n(c2=O)Cc2c-1nc1ccc(C)c3c1c2CCO3 (racemic)	4.5 (≈ 0.0111 µM)	1.38 (≈ 0.00341 µM)	41.9 (≈ 0.104 µM)	273	T/C (Mus musculus [2]): 376%; T/C [4]: >376%; T/C (Mus musculus [6]): 260%
CCC1(O)C(=O)OCc2c1cc1n(c2=O)Cc2cc3ccccc3nc2-1 (racemic)					T/C [12]: 148%; T/C [13]: 128%; T/C [14]: 128%; T/C [15]: 163%
CCC1(O)C(=O)OCc2c1cc1n(c2=O)Cc2c-1nc1ccc(C)c3c1c2CCN3 (racemic)		1.68 (≈ 0.00416 µM)	41.8 (≈ 0.104 µM)	207	T/C (Mus musculus [2]): 174%; T/C [4]: 180%
CCC1(O)C(=O)OCc2c1cc1n(c2=O)Cc2c-1nc1ccc(C)c3c1c2CCS3 (racemic)	3.77 (≈ 0.00897 µM)	3.36 (≈ 0.00799 µM)	35.8 (≈ 0.0851 µM)	293	T/C [5]: 205%; T/C [9]: 290%; T/C [10]: >400%; T/C (Mus musculus [6]): 224%
CCc1c2c(nc3ccc(O)cc13)-c1cc3c(c(=O)n1C2)COC(=O)[C@]3(O)CC [7-ETHYL-10-HYDROXYCAMPTOTHECIN]		3.17 (≈ 0.00808 µM)	123 (≈ 0.314 µM)	258	T/C (Mus musculus [2]): 67%; IC50 (P388 [16]): 6.93 ng/mL (≈ 0.0177 µM); T/C [5]: 146%; T/C (Mus musculus [6]): 191%
CC[C@@]1(O)C(=O)OCc2c1cc1n(c2=O)Cc2cc3ccccc3nc2-1 [CAMPTOTHECIN]	4.74 (≈ 0.0136 µM)	4.63 (≈ 0.0133 µM)	14.7 (≈ 0.0422 µM)		T/C [12]: 176%; T/C [13]: 130%; T/C [14]: 142%; T/C [15]: 144%
